According to patent US8759342B2, “Benzo[1,4]oxazin-3-one, benzo[1,4]thiazin-3-one and quinolin-2-one urotensin II receptor antagonists” (Janssen Pharmaceutica NV, priority 2006, dated 2014):

Target: T1, rat GPR14 (U-II receptor) (Rattus norvegicus, UniProt P49684)
T1 construct: expressed in transfected cells
T1 sequence (P49684 1-386): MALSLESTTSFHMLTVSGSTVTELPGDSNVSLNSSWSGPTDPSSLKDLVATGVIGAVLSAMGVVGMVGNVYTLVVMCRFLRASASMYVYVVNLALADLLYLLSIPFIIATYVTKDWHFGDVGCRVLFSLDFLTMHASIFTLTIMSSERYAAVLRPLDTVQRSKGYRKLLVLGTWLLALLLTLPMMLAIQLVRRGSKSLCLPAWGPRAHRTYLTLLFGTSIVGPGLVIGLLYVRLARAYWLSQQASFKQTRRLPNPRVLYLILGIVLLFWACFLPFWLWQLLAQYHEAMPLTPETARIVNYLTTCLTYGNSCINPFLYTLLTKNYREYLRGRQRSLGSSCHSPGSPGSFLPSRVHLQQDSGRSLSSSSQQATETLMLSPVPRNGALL
Assay: Calcium flux assay (FLIPR)
Format: cell-based
Conditions: Inhibition of acetyl-cyclic[Cys-Phe-Trp-Lys-(2-Nal)-Cys]-NH2 (1 nM) induced Ca2+ mobilization (FLIPR) in CHO cells transfected with rat UII receptor; 5 min incubation
Source text: To derive these cells, the complete coding sequence of rat […] was amplified by nested PCR from rat heart marathon-Ready cDNA. […] The PCR products were cloned into pcDNA3 (Invitrogen) digested with EcoR I and Xba I. Clones containing rat U-II receptor were verified by complete sequencing of the U-II receptor insert to ensure a lack of PCR-introduced errors. The constructed vector was transfected into CHO cells by using lipofectamine (GIBCO BRL). CHO cells with high expression of rat U-II receptor were selected and established as stable cell lines by using G418. CHO cells were seeded at 25,000 cells per well into 96-well, black-wall, clear-bottom microtiter plates 24 hrs before assay. Cells in culture media (DMEM/F12 containing 15 mM HEPES, L-glutamine, pyridoxine hydrochloride; 10% fetal bovine serum; 1 mg/mL G418 sulfate; antibiotic-antimycotic; pH 7.4) were loaded with proprietary dye, from the FLIPR Calcium Assay Kit (Molecular Devices), prepared in assay buffer (Hanks Balanced Salts Solution, 20 mM HEPES, 0.1% BSA, 2.5 mM probenecid, pH 7.4), and incubated for 1 hr at 37° C. Calcium mobilization determinations were performed at room temperature (23° C.).

| Structure (SMILES) | IC50 [µM] |
| --- | --- |
| COc1ccc(CCNC(=O)c2ccccc2C2CCN(CCN3C(=O)COc4ccccc43)CC2)cc1OC [Cpd 10, N-[2-(3,4-dimethoxy-phenyl)-ethyl]-2-{1-[2-(3-oxo-2,3-dihydro-benzo[1,4]oxazin-4-yl)-ethyl]-piperidin-4-yl}-benzamide] | 13 |
| O=C1COc2ccccc2N1CCN1CCC(c2ccccc2)CC1 [Cpd 86, 4-[2-(4-phenyl-piperidin-1-yl)-ethyl]-4H-benzo[1,4]oxazin-3-one] | 24 |
| O=C(NCc1cccs1)c1ccccc1C1CCN(CCN2C(=O)COc3ccccc32)CC1 [Cpd 46, 2-{1-[2-(3-oxo-2,3-dihydro-benzo[1,4]oxazin-4-yl)-ethyl]-piperidin-4-yl}-N-thiophen-2-ylmethyl-benzamide] | 6 |
| CC(C)(C)OC(=O)NCCCCCNC(=O)c1ccccc1C1CC2CCC(C1)N2CCN1C(=O)COc2ccccc21 (stereo not shown) [Cpd 97, [5-(2-{8-[2-(3-oxo-2,3-dihydro-benzo[1,4]oxazin-4-yl)-ethyl]-8-aza-bicyclo[3.2.1]oct-3-yl}-benzoylamino)-pentyl]-carbamic acid tert-butyl ester] | 5.4 |
| O=C(NCc1ccccn1)c1ccccc1C1CCN(CCN2C(=O)COc3ccccc32)CC1 [Cpd 41, 2-{1-[2-(3-oxo-2,3-dihydro-benzo[1,4]oxazin-4-yl)-ethyl]-piperidin-4-yl}-N-pyridin-2-ylmethyl-benzamide] | 21 |
| CN(Cc1ccccc1)C(=O)c1ccccc1C1CCN(CCN2C(=O)COc3ccccc32)CC1 [Cpd 5, N-benzyl-N-methyl-2-{1-[2-(3-oxo-2,3-dihydro-benzo[1,4]oxazin-4-yl)-ethyl]-piperidin-4-yl}-benzamide] | 11 |
| O=C(NCC1CC1)c1ccccc1C1CCN(CCN2C(=O)COc3ccccc32)CC1 [Cpd 24, N-cyclopropylmethyl-2-{1-[2-(3-oxo-2,3-dihydro-benzo[1,4]oxazin-4-yl)-ethyl]-piperidin-4-yl}-benzamide] | 12 |
| O=C1COc2ccccc2N1CCN1CCC(c2cccc(Cl)c2)CC1 [Cpd 92, 4-{2-[4-(3-chloro-phenyl)-piperidin-1-yl]-ethyl}-4H-benzo[1,4]oxazin-3-one] | 20 |
| O=C(NCCCCc1ccccc1)c1ccccc1C1CCN(CCN2C(=O)COc3ccccc32)CC1 [Cpd 4] | 3.1 |
| COC(=O)c1cc(Cl)ccc1C1CCN(CCN2C(=O)COc3ccccc32)CC1 [Cpd 56, 5-chloro-2-{1-[2-(3-oxo-2,3-dihydro-benzo[1,4]oxazin-4-yl)-ethyl]-piperidin-4-yl}-benzoic acid methyl ester] | 8 |
| O=C(NCCc1cccc(F)c1F)c1ccccc1C1CCN(CCN2C(=O)COc3ccccc32)CC1 [Cpd 23, N-[2-(2,3-difluoro-phenyl)-ethyl]-2-{1-[2-(3-oxo-2,3-dihydro-benzo[1,4]oxazin-4-yl)-ethyl]-piperidin-4-yl}-benzamide] | 7 |
| O=C(NCCc1cc(F)ccc1F)c1ccccc1C1CCN(CCN2C(=O)COc3ccccc32)CC1 [Cpd 22, N-[2-(2,5-difluoro-phenyl)-ethyl]-2-{1-[2-(3-oxo-2,3-dihydro-benzo[1,4]oxazin-4-yl)-ethyl]-piperidin-4-yl}-benzamide] | 13 |
| COCCCNC(=O)c1ccccc1C1CCN(CCN2C(=O)COc3ccccc32)CC1 [Cpd 37, N-(3-methoxy-propyl)-2-{1-[2-(3-oxo-2,3-dihydro-benzo[1,4]oxazin-4-yl)-ethyl]-piperidin-4-yl}-benzamide] | 30 |
| COCCNC(=O)c1ccccc1C1CCN(CCN2C(=O)COc3ccccc32)CC1 [Cpd 36, N-(2-methoxy-ethyl)-2-{1-[2-(3-oxo-2,3-dihydro-benzo[1,4]oxazin-4-yl)-ethyl]-piperidin-4-yl}-benzamide] | 25 |
| O=C(NCCc1ccc(Cl)cc1)c1ccccc1C1CCN(CCN2C(=O)COc3ccccc32)CC1 [Cpd 9, N-[2-(4-chloro-phenyl)-ethyl]-2-{1-[2-(3-oxo-2,3-dihydro-benzo[1,4]oxazin-4-yl)-ethyl]-piperidin-4-yl}-benzamide] | 3.2 |
| O=C1COc2ccccc2N1CCN1CCC(C(=O)NCCc2ccccc2)(c2ccccc2)CC1 [Cpd 105, 1-[2-(3-oxo-2,3-dihydro-benzo[1,4]oxazin-4-yl)-ethyl]-4-phenyl-piperidine-4-carboxylic acid phenethyl-amide] | 7 |

| Structure (SMILES) | IC50 [µM] |
| --- | --- |
| O=C(NCCN1CCCCC1)c1cc(Cl)ccc1C1CCN(CCN2C(=O)COc3ccccc32)CC1 [Cpd 71, 5-chloro-2-{1-[2-(3-oxo-2,3-dihydro-benzo[1,4]oxazin-4-yl)-ethyl]-piperidin-4-yl}-N-(2-piperidin-1-yl-ethyl)-benzamide] | 0.27 |
| O=C(NCCc1ccccn1)c1ccccc1C1CCN(CCN2C(=O)COc3ccccc32)CC1 [Cpd 42, 2-{1-[2-(3-oxo-2,3-dihydro-benzo[1,4]oxazin-4-yl)-ethyl]-piperidin-4-yl}-N-(2-pyridin-2-yl-ethyl)-benzamide] | 20 |
| O=C(NCCc1ccc(F)cc1)c1ccccc1C1CCN(CCN2C(=O)COc3ccccc32)CC1 [Cpd 16, N-[2-(4-fluoro-phenyl)-ethyl]-2-{1-[2-(3-oxo-2,3-dihydro-benzo[1,4]oxazin-4-yl)-ethyl]-piperidin-4-yl}-benzamide] | 8 |
| CCCNC(=O)c1ccccc1C1CCN(CCN2C(=O)COc3ccccc32)CC1 [Cpd 29, 2-{1-[2-(3-oxo-2,3-dihydro-benzo[1,4]oxazin-4-yl)-ethyl]-piperidin-4-yl}-N-propyl-benzamide] | 20 |
| COc1ccc(C2CCN(CCN3C(=O)COc4ccccc43)CC2)cc1 [Cpd 87, 4-{2-[4-(4-methoxy-phenyl)-piperidin-1-yl]-ethyl}-4H-benzo[1,4]oxazin-3-one] | 47 |
| COc1ccccc1CCNC(=O)c1ccccc1C1CCN(CCN2C(=O)COc3ccccc32)CC1 [Cpd 15, N-[2-(2-methoxy-phenyl)-ethyl]-2-{1-[2-(3-oxo-2,3-dihydro-benzo[1,4]oxazin-4-yl)-ethyl]-piperidin-4-yl}-benzamide] | 8 |
| O=C(NCCCCCNC(=O)c1cc(Cl)ccc1C1CCN(CCN2C(=O)COc3ccccc32)CC1)Nc1ccccc1 [Cpd 81, 5-chloro-2-{1-[2-(3-oxo-2,3-dihydro-benzo[1,4]oxazin-4-yl)-ethyl]-piperidin-4-yl}-N-[5-(3-phenyl-ureido)-pentyl]-benzamide] | 0.53 |
| O=C(NCCCO)c1ccccc1C1CCN(CCN2C(=O)COc3ccccc32)CC1 [Cpd 39, N-(3-hydroxy-propyl)-2-{1-[2-(3-oxo-2,3-dihydro-benzo[1,4]oxazin-4-yl)-ethyl]-piperidin-4-yl}-benzamide] | 32 |
| COc1cc(CCNC(=O)c2ccccc2C2CCN(CCN3C(=O)COc4ccccc43)CC2)cc(OC)c1 [Cpd 17, N-[2-(3,5-dimethoxy-phenyl)-ethyl]-2-{1-[2-(3-oxo-2,3-dihydro-benzo[1,4]oxazin-4-yl)-ethyl]-piperidin-4-yl}-benzamide] | 7 |
| COc1cccc(CCNC(=O)c2ccccc2C2CCN(CCN3C(=O)COc4ccccc43)CC2)c1 [Cpd 6, N-[2-(3-methoxy-phenyl)-ethyl]-2-{1-[2-(3-oxo-2,3-dihydro-benzo[1,4]oxazin-4-yl)-ethyl]-piperidin-4-yl}-benzamide] | 10 |
| COc1ccc(OC)c(CCNC(=O)c2ccccc2C2CCN(CCN3C(=O)COc4ccccc43)CC2)c1 [Cpd 13, N-[2-(2,5-dimethoxy-phenyl)-ethyl]-2-{1-[2-(3-oxo-2,3-dihydro-benzo[1,4]oxazin-4-yl)-ethyl]-piperidin-4-yl}-benzamide] | 8 |
| O=C(NCCc1ccccc1Cl)c1ccccc1C1CCN(CCN2C(=O)COc3ccccc32)CC1 [Cpd 8, N-[2-(2-chloro-phenyl)-ethyl]-2-{1-[2-(3-oxo-2,3-dihydro-benzo[1,4]oxazin-4-yl)-ethyl]-piperidin-4-yl}-benzamide] | 14 |
| COc1ccc(CCNC(=O)c2ccccc2C2CCN(CCN3C(=O)COc4ccccc43)CC2)cc1 [Cpd 14, N-[2-(4-methoxy-phenyl)-ethyl]-2-{1-[2-(3-oxo-2,3-dihydro-benzo[1,4]oxazin-4-yl)-ethyl]-piperidin-4-yl}-benzamide] | 4 |
| O=C1COc2ccccc2N1CCN1C2CCC1CC(c1ccccc1)C2 (stereo not shown) [Cpd 101, 4-[2-(3-phenyl-8-aza-bicyclo[3.2.1]oct-8-yl)-ethyl]-4H-benzo[1,4]oxazin-3-one] | 19 |
| O=C1COc2ccccc2N1CCN1CCC(c2ccccc2F)CC1 [Cpd 89, 4-{2-[4-(2-fluoro-phenyl)-piperidin-1-yl]-ethyl}-4H-benzo[1,4]oxazin-3-one] | 23 |
